# How the values were obtained:
# A2780 EOC cells = experiment: Caspase-3/7 activity in A2780 cells, wt or MyD88 transfected, carboplatin versus paclitaxel; format: cell-based, human; settings: 100 μg/ml carboplatin or 2 μM paclitaxel, 48 hours; for caspase-3/7 activity: wildtype A2780
# Method: (§1) Ten μg of protein in a 50 μl total volume was mixed with 50 μl of equilibrated reagents of a caspase assay kit, i.e., the CASPASE GLO™ 3/7 Assay (Promega). After incubating at room temperature for 1 h, luminescence was measured using TD 20/20 Luminometer (Turner Designs, Sunnyvale, Calif.). Blank values were subtracted and fold-increase in activity was calculated based on activity measured from untreated cells. Each sample was measured in triplicate.
# Transfection was performed using a plasmid containing the full-length cDNA (SEQ ID NO:3) of human MyD88 (pUNO-hMyD88, Invivogen), which encodes the amino acid sequence of SEQ ID NO:4. CP70 and A2780 cells were grown in […] surface tissue culture flasks until they reached 50% confluence. 12 μl of the Fugene 6 Transfection reagent was added into 4 ml of serum-free media for each transfection. After 5 minutes of incubation at room temperature, 1 μg of the plasmid pUNO-hMyD88 was added to the serum-free media containing Fugene 6 Transfection Reagent, and the mixtures were incubated at room temperature for another 15 minutes. The growth media in each flask was discarded, and the corresponding Fugene 6-plasmid-serum-free-media mixture was added and the flasks were incubated overnight at 37° C. 5% CO2. The transfection media was replaced with fresh growth media the second day and the cells were allowed to recover for 24 hours post transfection before treatments.
# Applicants also determined whether the expression of MyD88 confers resistance that is specific to paclitaxel. Wildtype (wt) A2780 EOC cells (carboplatin sensitive) and A2780 EOC cells transfected with MyD88 were treated with 100 μg/ml carboplatin or 2 μM paclitaxel for 48 hours. Apoptosis was determined by measuring caspase-3/7 activity.
# MyD88+ EOC cells [1] = experiment: CELLTITER96 cell viability / proliferation assay, MyD88+ EOC cells; format: cell-based, human; settings: EOC cells that express MyD88
# Method: Cell viability was evaluated using a cell proliferation assay, i.e., the CELLTITER96® Aqueous One Solution Cell Proliferation Assay (Promega, Madison, Wis.) according to the manufacturer's instructions. The values from the treated cells were compared with the values generated from the untreated cells and reported as percent viability. Each experiment was performed at least three times.
# Once the expression of TLR-4 in EOC samples was established, Applicants evaluated the biological function of this receptor and also evaluated the significance of MyD88 status. EOC cell lines expressing MyD88 (MyD88^+) and those shown to lack MyD88 (MyD88^−) were treated with increasing concentrations of LPS (one of the main ligands for TLR-4) for 24 h and 48 h and cell viability was determined using a cell proliferation assay, i.e., the CELLTITER96® AQueous One Solution Cell Proliferation Assay. […] Thus, LPS induced a time- and dose-dependent increase in cell proliferation in cells expressing MyD88, but not in MyD88− EOC cells. LPS had no effect on viability of OSE cell, which are also negative for MyD88 expression.
# MyD88+ EOC cells [2] = experiment: Cytokine ELISA (GRO-α, MCP-1, IL-6), MyD88+ EOC cells; format: cell-based, human; settings: increasing concentrations of paclitaxel, 24 h, 48 h, 72 h; dose- and time-dependent, p<0.01
# Method: (§2) The concentrations of the IL-6, GRO-α, MCP-1 were evaluated by ELISA, according to the manufacturer's instructions. (R&D Systems, Minneapolis, Minn.)
# (§3) EOC cell lines were treated for 48 h with 10 μg/ml LPS and the levels of GRO-α, MCP-1, and IL-6 were determined. […] Unstimulated MyD88^+ EOC cells constitutively express all the cytokines tested. […] In contrast, unstimulated MyD88^− EOC cells secreted undetectable or low levels of these pro-inflammatory cytokines, which were not affected by TLR-4 ligation with LPS.
# (§4) MyD88^+ and MyD88^− EOC cells were treated with increasing concentrations of paclitaxel for 24 h, 48 h, and 72 h and levels of IL-6 secretion were determined by ELISA.
# MyD88- EOC cells [3] = experiment: Cytokine ELISA (GRO-α, MCP-1, IL-6), MyD88- EOC cells; format: cell-based, human; settings: increasing concentrations of paclitaxel, 24 h, 48 h, 72 h
# Method: as §2, §3, §4
# MyD88- EOC cell lines = experiment: CASPASE GLO 3/7 apoptosis assay, MyD88- EOC cell lines; format: cell-based, human; settings: 2 μM paclitaxel, 24 h
# Method: as §1
# (§5) Paclitaxel has been reported to be a potential ligand to TLR-4 (23). […] EOC cells were treated with 2 μM paclitaxel for 24 h and apoptosis was determined by measuring the activity of caspases-3 and -7 using a caspase assay kit CASPASE GLO™ 3/7 Assay.
# MyD88+ EOC cells [4] = experiment: CASPASE GLO 3/7 apoptosis assay, MyD88+ EOC cells; format: cell-based, human; settings: 2 μM paclitaxel, 24 h
# Method: as §1, §5
# normal OSE cells = experiment: CASPASE GLO 3/7 apoptosis assay, normal OSE cells; format: cell-based; settings: 2 μM paclitaxel, 24 h
# MyD88+ EOC cells [5] = experiment: Cytokine microarray (Fast Quant), MyD88+ EOC cells; format: cell-based, human; settings: 48 h; LPS 10 μg/ml or paclitaxel 20 μM
# Method: (§6) A panel of 10 cytokines, pro and anti-inflammatory, was simultaneously evaluated using the Fast Quant Human II kit (Whatman/Schleicher & Schuell) according to the manufacturer instructions. The signal was detected using the Genepix 4000 microarray reader and the results were analyzed using the Genepix 3.0 software (Whatman/Schleicher & Schuell).
# (§7) To further characterize the effect of paclitaxel and LPS on the secretion of several cytokines and chemokines in MyD88^+ and MyD88^− EOC cells, Applicants used a high throughput microarray system (Whatman/Schleicher & Schull) to measure the levels of IL-6, IL-4, IL-8, IL-12, RANTES, and IFN-γ. Cytokine secretion was measured in the supernatants of EOC cells following 48 h incubation with either LPS (10 μg/ml) or paclitaxel (20 μM).
# MyD88- EOC cells [6] = experiment: Cytokine microarray (Fast Quant), MyD88- EOC cells; format: cell-based, human; settings: 48 h; LPS 10 μg/ml or paclitaxel 20 μM
# Method: as §6, §7
# MyD88+ R182 EOC cells = experiment: IL-6 secretion in R182 EOC cells with and without MyD88 RNAi; format: cell-based, human
# Method: EOC cells were transiently transfected with a GFP-expressing plasmid containing silencing RNA (siRNA) directed against MyD88 (psiRNA-hMyD88, Invivogen, San Diego, Calif.). Briefly, 1.5×10^5 cells were seeded in 60 mm dishes and cultured overnight until 40-60% confluent. Cells were then transfected for 18 h with 2 μg of DNA using Fugene 6 Transfection reagent (Roche Applied Science, Indianapolis, Ind.). Ratio of Fugene to DNA was 3:1. Following transfection, cells were allowed to recover in growth media for 24 h prior to treatment.
# In order to confirm that in MyD88^+ EOC cells, the ligation of TLR-4 by either LPS or paclitaxel induces the production of cytokines, Applicants inhibited its expression in MyD88^+ R182 EOC cells using RNA interference technology. […] These findings confirmed that the cytokine response in EOC cells following LPS and paclitaxel treatment involves signaling through MyD88.
# A2780 and CP70 EOC cells = experiment: Caspase-3/7 activity in A2780 and CP70 cells, wt or transfected with pUNO-hMyD88; format: cell-based, human; settings: 48 h
# Method: as §1
# Transfection was performed using a plasmid containing the full-length cDNA (SEQ ID NO:3) of human MyD88 (pUNO-hMyD88, Invivogen), which encodes the amino acid sequence of SEQ ID NO:4. CP70 and A2780 cells were grown in […] surface tissue culture flasks until they reached 50% confluence. 12 μl of the Fugene 6 Transfection reagent was added into 4 ml of serum-free media for each transfection. […]
# Because Applicants observed a positive correlation between MyD88 expression and resistance to paclitaxel-induced apoptosis, their next objective was to determine whether the induction of MyD88 expression in EOC might confer resistance to paclitaxel. […] After 24 h of transfection, the cells were either left untreated or treated with 2 μM paclitaxel for 48 h and caspase-3/7 activity was determined.
# MyD88+ cells = experiment: Western blot of XIAP, pAkt and total Akt in MyD88+ cells; format: cell-based, human
# Text: Twenty μg protein were denatured in sample buffer (2.5% SDS, 10% glycerol, 5% β-mercapto-ethanol, 0.15 M Tris (pH=6.8) and 0.01% bromophenol blue) and subjected to 12% SDS-PAGE as previously described (17). Antibodies used: rabbit anti-TLR-4 (Santa Cruz Biotechnology, Santa Cruz, Calif., 1:1,000), rabbit anti-MyD88 (eBiosciences, San Diego, Calif., 1:1,000), mouse anti-NF-κB (Santa Cruz Biotechnology, 1:1,000), mouse anti-DNA topoisomerase 1 (BD Biosciences, San Jose, Calif., 1:500) and, rabbit anti-actin (Sigma Chemical Co., 1:10,000). Proteins were visualized using enhanced chemiluminescence (Pierce Biotechnology).
# TLR-4 ligation through NF-κB and inflammatory molecules promotes cell survival by the induction of the expression of anti-apoptotic proteins (24, 25). The expression of X-linked inhibitor of apoptosis (XIAP), a major inhibitor of caspase-3 and 9, and the expression of Akt has been associated with tumor growth and chemoresistance in ovarian cancer cells (26-28). Therefore, Applicants evaluated the expression of XIAP and phosphorylated Akt (pAkt) following paclitaxel treatment in MyD88^+ cells. […] Similarly, XIAP levels increased 2 h post-treatment. In contrast, no change on the levels of total Akt was observed.
# murine macrophages = settings: cited from earlier work
structure (smiles),measurement,setting,value
N.N.O=C([O-])C1(C(=O)[O-])CCC1.[Pt+2] [carboplatin],sensitivity (apoptosis by caspase-3/7 activity),A2780 EOC cells; A2780 transfected with MyD88,retained its sensitivity
same,caspase-3/7 activity,A2780 EOC cells,significant increase
CC(=O)O[C@H]1C(=O)[C@@]2(C)[C@H]([C@H](OC(=O)c3ccccc3)[C@]3(O)C[C@H](OC(=O)[C@H](O)[C@@H](NC(=O)c4ccccc4)c4ccccc4)C(C)=C1C3(C)C)[C@]1(OC(C)=O)CO[C@@H]1C[C@@H]2O [paclitaxel],proliferation in culture upon TLR-4 ligation,MyD88+ EOC cells [1],proliferate in culture
same,IL-6 production,MyD88+ EOC cells [2],significant increase
same,IL-6 levels,MyD88- EOC cells [3],did not affect
same,caspase-3/7 activity,MyD88- EOC cell lines,significant increase
same,caspase-3/7 activity,MyD88+ EOC cells [4],no significant change
same,caspase activity,normal OSE cells,Significant increase
same,"secretion of IL-4, IL-12 and IFN-γ",MyD88+ EOC cells [5],neither MyD88^+ nor MyD88^− EOC cells secreted detectable levels
same,"secretion of IL-6, IL-8 and RANTES",MyD88+ EOC cells [5],increased secretion
same,"secretion of IL-4, IL-12 and IFN-γ",MyD88- EOC cells [6],neither MyD88^+ nor MyD88^− EOC cells secreted detectable levels
same,"secretion of IL-6, IL-8 or RANTES",MyD88- EOC cells [6],neither constitutive secretion nor LPS- or paclitaxel-induced
same,IL-6 secretion,MyD88+ R182 EOC cells; R182 cells after inhibition of MyD88 expression by RNAi,decreased IL-6 secretion
same,IL-6 production,"MyD88+ R182 EOC cells; wild type R182 cells, LPS 10 μg/ml or paclitaxel 2 μM",high levels of IL-6
same,caspase-3/7 activity,"A2780 and CP70 EOC cells; cells transfected with pUNO-hMyD88, 2 μM paclitaxel",no changes
same,caspase-3/7 activity,"A2780 and CP70 EOC cells; wt cells, 2 μM paclitaxel",significant increase
same,caspase-3/7 activity,A2780 EOC cells,significant increase
same,XIAP levels,MyD88+ cells; 2 h post-treatment,increased
same,phosphorylated Akt (pAkt),MyD88+ cells; 4 h after treatment,significant increase
same,levels of total Akt,MyD88+ cells; after paclitaxel treatment,no change
same,"secretion of inflammatory cytokines, including TNFα, IL-6 and IL-8",murine macrophages; TLR-4 and MyD88 dependent,induces the secretion of inflammatory cytokines
same,macrophage activation,murine macrophages; studies by Ding et al,activates murine macrophages
